Reference: patent US20240336654A1, “ANTIMICROBIAL PEPTIDOMIMETICS” (SPEXIS AG, priority 2021, published 2024)
Where a SMILES comes first, the peptide text is derived from it. Bridges are numbered along the chain shown (N, C = ends). [ ]: non-standard residue; d: D form. The star is where a group is joined. Val(Nα-amidino) = CC(C)[C@H](NC(=N)N)C(=O)*; Hyp = O=C(O)[C@@H]1C[C@@H](O)CN1; Agb = N=C(N)NCC[C@H](N)C(=O)O; Pen = CC(C)(S)[C@H](N)C(=O)O; X1 = CC[C@H](NC(=N)N)C(=O)*; dDab = NCC[C@@H](N)C(=O)O; Orn = NCCC[C@H](N)C(=O)O; Dab = NCC[C@H](N)C(=O)O

Experiments:
Format in all cases: cell-based
[1] = tested on: Escherichia coli MCR-1 Af 45; details: MCR-1 Af 45
Summary of the method: (§1)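 The MIC is the lowest peptide concentration, in μg/mL, with no visible growth after 18-20 h incubation at 35 °C. Serial two-fold peptide dilutions in water with 0.002% P-80 final were added to bacteria in cation-adjusted MHII broth, about 5×10^5 CFU/mL, following modified CLSI microdilution.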

[2] = tested on: Escherichia coli ATCC 25922; details: ATCC 25922
Summary of the method: as §1

[3] = tested on: Klebsiella pneumoniae SSI3010; details: SSI3010
Summary of the method: as §1

[4] = tested on: human red blood cells (hRBC); details: red cells of human, 1 h, 200 μg/mL
Summary of the method: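 Peptides at 200 μg/mL incubated 1 h at 37 °C with 20% (v/v) washed human RBC, shaking. Hemolysis from supernatant OD540, expressed as percent of 2.5% Triton X-100 lysis, with PBS as 0%.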

| Escherichia coli MCR-1 Af45 MIC [1] [µg/mL] | Escherichia coli ATCC 25922 MIC [2] [µg/mL] | Klebsiella pneumoniae SSI3010 MIC [3] [µg/mL] | Compound | Hemolysis at 0.2 g/L [4] [%] |
| --- | --- | --- | --- | --- |
| 0.25 | 0.25 | 0.25 | CC[C@H](C)[C@H](NC(=O)[C@@H]1C[C@@H](O)CN1C(=O)[C@@H](NC(=N)N)C(C)C)C(=O)N[C@@H]1C(=O)N[C@@H](Cc2ccc(O)cc2)C(=O)N[C@@H](CCN)C(=O)N[C@@H](CC(N)=O)C(=O)N[C@@H](CCCNC(=N)N)C(=O)N[C@@H](CCN)C(=O)N[C@@H]([C@@H](C)O)C(=O)N[C@H](CCN)C(=O)N[C@@H](CCCCN)C(=O)N[C@@H]([C@@H](C)O)C(=O)N[C@@H](CO)C(=O)N[C@H](C(=O)N[C@@H](Cc2ccc(O)cc2)C(=O)O)CSSC1(C)C [Example 74, Gua-Val-Hyp-Ile-Pen-Tyr-Dab-Asn-Arg-Dab-Thr-^DDab-Lys-Thr-Ser-Cys-Tyr] ({Val(Nα-amidino)}-[Hyp]I[Pen]Y[Dab]NR[Dab]T[dDab]KTSCY-OH; disulfide 3-14) | <1 |
| 0.0625 | 0.125 | 0.125 | CC[C@H](C)[C@H](NC(=O)[C@@H]1C[C@@H](O)CN1C(=O)[C@@H](NC(=N)N)C(C)C)C(=O)N[C@@H]1C(=O)N[C@@H](Cc2ccc(O)cc2)C(=O)N[C@@H](CO)C(=O)N[C@@H](CC(N)=O)C(=O)N[C@@H](CCCNC(=N)N)C(=O)N[C@@H](CCN)C(=O)N[C@@H]([C@@H](C)O)C(=O)N[C@H](CCN)C(=O)N[C@@H](CCCCN)C(=O)N[C@@H](CCN)C(=O)N[C@@H](CCNC(=N)N)C(=O)N[C@H](C(=O)N[C@@H](Cc2ccc(O)cc2)C(=O)O)CSSC1(C)C [Example 75, Gua-Val-Hyp-Ile-Pen-Tyr-Ser-Asn-Arg-Dab-Thr-^DDab-Lys-Dab-Agb-Cys-Tyr] ({Val(Nα-amidino)}-[Hyp]I[Pen]YSNR[Dab]T[dDab]K[Dab][Agb]CY-OH; disulfide 3-14) | <1 |
| 0.5 | 1 | 0.25 | CC[C@H](NC(=N)N)C(=O)N1C[C@H](O)C[C@H]1C(=O)N[C@H](C(=O)N[C@@H]1C(=O)N[C@@H](Cc2ccc(O)cc2)C(=O)N[C@@H](CO)C(=O)N[C@@H](CC(N)=O)C(=O)N[C@@H](CCCNC(=N)N)C(=O)N[C@@H](CCN)C(=O)N[C@@H]([C@@H](C)O)C(=O)N[C@H](CCN)C(=O)N[C@@H](CCCCN)C(=O)N[C@@H](CCN)C(=O)N[C@@H](CCN)C(=O)N[C@H](C(=O)N[C@@H](Cc2ccc(O)cc2)C(=O)O)CSSC1(C)C)[C@@H](C)CC [Example 76, Gua-Abu-Hyp-Ile-Pen-Tyr-Ser-Asn-Arg-Dab-Thr-^DDab-Lys-Dab-Dab-Cys-Tyr] (X1-[Hyp]I[Pen]YSNR[Dab]T[dDab]K[Dab][Dab]CY-OH; disulfide 3-14) | <1 |
| 0.5 | 0.25 | 0.25 | CC[C@H](C)[C@H](NC(=O)[C@@H]1C[C@@H](O)CN1C(=O)[C@@H](NC(=N)N)C(C)C)C(=O)N[C@@H]1C(=O)N[C@@H](Cc2ccc(O)cc2)C(=O)N[C@@H](CO)C(=O)N[C@@H](CC(N)=O)C(=O)N[C@@H](CCCNC(=N)N)C(=O)N[C@@H](CCN)C(=O)N[C@@H]([C@@H](C)O)C(=O)N[C@H](CCN)C(=O)N[C@@H](CCCCN)C(=O)N[C@@H](CCCN)C(=O)N[C@@H](CO)C(=O)N[C@H](C(=O)N[C@@H](Cc2ccc(O)cc2)C(=O)O)CSSC1(C)C [Example 77, Gua-Val-Hyp-Ile-Pen-Tyr-Ser-Asn-Arg-Dab-Thr-^DDab-Lys-Orn-Ser-Cys-Tyr] ({Val(Nα-amidino)}-[Hyp]I[Pen]YSNR[Dab]T[dDab]K[Orn]SCY-OH; disulfide 3-14) | <1 |
| 0.125 | 0.125 | 0.25 | CC[C@H](C)[C@H](NC(=O)[C@@H]1C[C@@H](O)CN1C(=O)[C@@H](N)C(C)C)C(=O)N[C@H]1CCNC(=O)CC[C@@H](C(=O)N[C@@H](Cc2ccc(O)cc2)C(=O)O)NC(=O)[C@H](CCN)NC(=O)[C@H](CCN)NC(=O)[C@H](CCCCN)NC(=O)[C@@H](CCN)NC(=O)[C@H]([C@@H](C)O)NC(=O)[C@H](CCN)NC(=O)[C@H](CCCNC(=N)N)NC(=O)[C@H](CC(N)=O)NC(=O)[C@H](CO)NC(=O)[C@H](Cc2ccc(O)cc2)NC1=O [Example 78, Val-Hyp-Ile-Dab-Tyr-Ser-Asn-Arg-Dab-Thr-^DDab-Lys-Dab-Dab-Glu-Tyr] (H-V[Hyp]I[Dab]YSNR[Dab]T[dDab]K[Dab][Dab]EY-OH; lactam 4-15) | <1 |
| 0.0625 | 0.125 | 0.25 | CC[C@H](C)[C@H](NC(=O)[C@@H]1C[C@@H](O)CN1C(=O)[C@@H](N)C(C)C)C(=O)N[C@H]1CCC(=O)NCC[C@@H](C(=O)N[C@@H](Cc2ccc(O)cc2)C(=O)O)NC(=O)[C@H](CCN)NC(=O)[C@H](CCN)NC(=O)[C@H](CCCCN)NC(=O)[C@@H](CCN)NC(=O)[C@H]([C@@H](C)O)NC(=O)[C@H](CCN)NC(=O)[C@H](CCCNC(=N)N)NC(=O)[C@H](CC(N)=O)NC(=O)[C@H](CO)NC(=O)[C@H](Cc2ccc(O)cc2)NC1=O [Example 79, Val-Hyp-Ile-Glu-Tyr-Ser-Asn-Arg-Dab-Thr-^DDab-Lys-Dab-Dab-Dab-Tyr] (H-V[Hyp]IEYSNR[Dab]T[dDab]K[Dab][Dab][Dab]Y-OH; lactam 4-15) | <1 |
| 0.0625 | 0.125 | 0.125 | CC[C@H](C)[C@H](NC(=O)[C@@H]1C[C@@H](O)CN1C(=O)[C@@H](NC(=N)N)C(C)C)C(=O)N[C@@H]1C(=O)N[C@@H](Cc2ccc(O)cc2)C(=O)N[C@@H]([C@@H](C)O)C(=O)N[C@@H](CC(N)=O)C(=O)N[C@@H](CCCNC(=N)N)C(=O)N[C@@H](CCN)C(=O)N[C@@H](CO)C(=O)N[C@H](CCN)C(=O)N[C@@H](CCCCN)C(=O)N[C@@H](CCN)C(=O)N[C@@H](CCN)C(=O)N[C@H](C(=O)N[C@@H](Cc2ccc(O)cc2)C(=O)O)CSSC1(C)C [Example 80, Gua-Val-Hyp-Ile-Pen-Tyr-Thr-Asn-Arg-Dab-Ser-^DDab-Lys-Dab-Dab-Cys-Tyr] ({Val(Nα-amidino)}-[Hyp]I[Pen]YTNR[Dab]S[dDab]K[Dab][Dab]CY-OH; disulfide 3-14) | <1 |
| 0.125 | 0.125 | 0.25 | CC[C@H](C)[C@H](NC(=O)[C@@H]1C[C@@H](O)CN1C(=O)[C@@H](NC(=N)N)C(C)C)C(=O)N[C@@H]1C(=O)N[C@@H](Cc2ccc(O)cc2)C(=O)N[C@@H]([C@@H](C)O)C(=O)N[C@@H](CC(N)=O)C(=O)N[C@@H](CCCNC(=N)N)C(=O)N[C@@H](CCN)C(=O)N[C@@H]([C@@H](C)O)C(=O)N[C@H](CCN)C(=O)N[C@@H](CO)C(=O)N[C@@H](CCN)C(=O)N[C@@H](CCN)C(=O)N[C@H](C(=O)N[C@@H](Cc2ccc(O)cc2)C(=O)O)CSSC1(C)C [Example 81, Gua-Val-Hyp-Ile-Pen-Tyr-Thr-Asn-Arg-Dab-Thr-^DDab-Ser-Dab-Dab-Cys-Tyr] ({Val(Nα-amidino)}-[Hyp]I[Pen]YTNR[Dab]T[dDab]S[Dab][Dab]CY-OH; disulfide 3-14) | <1 |
